One assay concerns SH-SY5Y cells. The assay is described as follows: Cell viability (resazurin), SH-SY5Y. The format is cell-based. The settings on record: 3 day treatment. Here is the method: normalized to DMSO treated lanes on the same membrane. (Several compounds were
measured at the same time, so DMSO treated lanes are replicated here between
Figure S5. Anti-proliferation in additional cell lines. LNCaP (A and C) and SH-SY5Y (B)
cell viability following 3 day compound treatment, and LNCaP following 6 day treatment
(D), determined using resazurin.
After 3 days of treatment, dCE-2 only has a mild effect on the proliferation of LNCaP and
SH-SY5Y cells (Figure S5A and B).
the new CBP/EP300 PROTACs CBPD -268 and CBPD-4092,3 which have enhanced anti-
proliferative activity in LNcaP cells relative to their parent inhibitor s. However, although
these PROTACs have effects at very low concentrations, their effect plateaus and a
substantial proportion of cells remain viable at high compound concentrations. Similarly,
degradation of CBP and EP300, the maximal effect of this PROTAC is also limited under
the conditions we used (Figure S5C). Through this work it was clear to us that these […]
The primer sequences used were:
Gene Gene ID Forward Primer (5’-3’) Reverse primer (5’-3’)
myc NM_001354870.1 GTAGTGGAAAACCAGCC […]
Fluorescence (excitation = 560 nm, emission = 590 nm) was measured using a
spectraMax M5 microplate reader (Molecular Devices) and cell viability was calculated […]
values were calculated as the concentration required to inhibit cell viability to 50 % […]
(In general: The colour change of resazurin is a common sign of viable cells or microbes.)

A further assay concerns the target CBP-BRD (Homo sapiens, UniProt Q92793). Description: TR-FRET competition with acetylated peptide binding to CBP-BRD, with and without CRBN (cooperativity). The arrangement: GST-CBP (human, residues 1081-1197); made in house; host or cells: Rosetta (DE3) cells (E. coli). For orientation: In TR-FRET formats the signal depends on donor and acceptor labels being close together.

The target of the next assay is T1, CBP (Homo sapiens, UniProt Q92793).
T1 construct: quantification of CBP and EP300 levels by Western blotting following 16 h treatment of LP1 cells; endogenous in cells; host or cells: LP1 cells
T1 sequence (Q92793 whole entry): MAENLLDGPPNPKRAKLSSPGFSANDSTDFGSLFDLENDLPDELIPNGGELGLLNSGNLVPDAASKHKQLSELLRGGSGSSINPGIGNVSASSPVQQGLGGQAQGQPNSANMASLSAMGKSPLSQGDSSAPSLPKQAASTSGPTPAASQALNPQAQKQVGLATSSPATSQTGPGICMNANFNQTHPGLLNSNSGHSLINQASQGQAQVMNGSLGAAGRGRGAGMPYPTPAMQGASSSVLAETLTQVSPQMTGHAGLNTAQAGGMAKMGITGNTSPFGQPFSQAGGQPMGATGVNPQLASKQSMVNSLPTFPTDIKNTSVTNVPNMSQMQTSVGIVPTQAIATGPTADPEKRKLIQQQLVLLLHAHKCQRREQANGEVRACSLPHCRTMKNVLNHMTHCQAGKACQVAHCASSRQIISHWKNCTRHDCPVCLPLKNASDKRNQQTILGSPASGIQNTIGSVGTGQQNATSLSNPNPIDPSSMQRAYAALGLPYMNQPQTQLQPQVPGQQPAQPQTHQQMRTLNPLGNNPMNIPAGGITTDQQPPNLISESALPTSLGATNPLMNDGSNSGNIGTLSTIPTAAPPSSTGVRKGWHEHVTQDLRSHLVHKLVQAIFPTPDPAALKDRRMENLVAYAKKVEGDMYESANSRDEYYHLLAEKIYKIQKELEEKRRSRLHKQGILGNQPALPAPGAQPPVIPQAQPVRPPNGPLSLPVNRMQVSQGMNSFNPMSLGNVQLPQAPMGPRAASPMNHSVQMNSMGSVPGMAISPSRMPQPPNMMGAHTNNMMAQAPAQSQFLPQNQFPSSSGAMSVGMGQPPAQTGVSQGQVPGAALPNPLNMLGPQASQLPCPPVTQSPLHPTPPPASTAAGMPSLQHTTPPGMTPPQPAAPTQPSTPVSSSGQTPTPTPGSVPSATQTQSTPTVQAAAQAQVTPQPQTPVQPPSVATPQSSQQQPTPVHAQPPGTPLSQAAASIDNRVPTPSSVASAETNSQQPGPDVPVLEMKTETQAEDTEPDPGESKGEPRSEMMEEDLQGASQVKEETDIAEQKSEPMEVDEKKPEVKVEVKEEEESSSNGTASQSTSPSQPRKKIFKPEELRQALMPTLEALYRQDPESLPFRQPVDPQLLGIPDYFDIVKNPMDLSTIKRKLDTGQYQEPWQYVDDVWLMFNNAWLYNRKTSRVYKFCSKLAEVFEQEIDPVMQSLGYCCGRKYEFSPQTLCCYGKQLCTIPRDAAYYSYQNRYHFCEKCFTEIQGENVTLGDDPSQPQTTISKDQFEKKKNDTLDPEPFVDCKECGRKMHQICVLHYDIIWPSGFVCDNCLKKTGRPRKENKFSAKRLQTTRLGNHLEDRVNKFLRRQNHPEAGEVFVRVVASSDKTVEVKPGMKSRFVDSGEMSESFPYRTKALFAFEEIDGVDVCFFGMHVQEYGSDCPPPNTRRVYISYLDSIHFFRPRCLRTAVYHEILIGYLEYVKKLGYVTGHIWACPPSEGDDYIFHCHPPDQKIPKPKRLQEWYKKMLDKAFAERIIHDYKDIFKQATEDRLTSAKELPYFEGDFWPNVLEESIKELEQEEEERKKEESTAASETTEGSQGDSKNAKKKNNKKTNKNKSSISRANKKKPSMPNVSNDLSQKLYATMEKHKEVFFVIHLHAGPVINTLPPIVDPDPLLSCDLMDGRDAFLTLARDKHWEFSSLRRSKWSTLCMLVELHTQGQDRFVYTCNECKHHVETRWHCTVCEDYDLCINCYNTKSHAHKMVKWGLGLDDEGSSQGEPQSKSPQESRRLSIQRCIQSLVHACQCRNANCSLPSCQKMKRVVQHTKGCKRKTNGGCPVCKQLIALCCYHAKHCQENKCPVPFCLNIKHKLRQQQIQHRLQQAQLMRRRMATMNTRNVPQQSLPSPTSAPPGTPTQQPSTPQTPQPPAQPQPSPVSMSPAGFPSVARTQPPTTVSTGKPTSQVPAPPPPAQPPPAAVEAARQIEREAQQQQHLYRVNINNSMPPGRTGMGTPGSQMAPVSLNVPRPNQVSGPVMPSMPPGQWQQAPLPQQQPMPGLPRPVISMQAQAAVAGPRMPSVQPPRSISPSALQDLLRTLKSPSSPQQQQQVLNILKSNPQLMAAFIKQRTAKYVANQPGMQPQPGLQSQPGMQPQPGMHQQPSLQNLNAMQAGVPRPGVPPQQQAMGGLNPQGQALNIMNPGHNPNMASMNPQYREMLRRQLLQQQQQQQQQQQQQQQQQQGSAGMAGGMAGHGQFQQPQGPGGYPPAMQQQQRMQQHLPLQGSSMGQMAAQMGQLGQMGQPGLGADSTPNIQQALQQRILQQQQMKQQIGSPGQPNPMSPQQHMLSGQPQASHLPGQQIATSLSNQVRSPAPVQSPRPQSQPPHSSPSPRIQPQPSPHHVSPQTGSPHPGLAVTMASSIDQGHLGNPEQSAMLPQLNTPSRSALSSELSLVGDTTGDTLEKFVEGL
The assay is described as follows: Quantification of CBP degradation by Western blotting in LP1 cells. The format is cell-based. As to the method: LP1 cells were cultured in DMEM (Gibco, 41966-029) supplemented with 15 % FBS (Sigma, F9665); MM1S and LNCaP cells in RPMI 1640 ATCC modification (Gibco, […]
DMEM/F12 (Gibco, 11320074) supplemented with 1 % non-essential amino acids […]
additionally supplemented with 1 % penicillin/streptomycin (Gibco, 15070-063), and cells maintained in a humidified incubator with 5 % CO2 at 37 °C. The identity of all lines (except for MM1S which were recently purchased from ATCC) was authenticated by STR profiling (performed by Microsynth).
Quantification of CBP/EP300 degradation by Western blotting
LP1 cells plated on 6 well plates were treated with the stated compounds at a final concentration of 0.1 % DMSO for the stated time. Cells were harvested on ice, washed in PBS and lysed in RIPA buffer (50 mM tris pH 7.5, 2 mM EDTA, 150 mM NaCl, 0.5 % sodium deoxycholate, 1 % Triton X100) supplemented with cOmplete ™ protease inhibitor cocktail (Roche). Protein concentrations were determined using the Pierce ™ BCA Protein Assay Kit (Thermo Scientific, 23227) and equal amounts were separated on 4-12 % ExpressPl us™ PAGE gels (GenScript, M41215). Proteins were transferred to PVDF membranes, the membranes were blocked with 5 % milk (Merk Millipore, 115363) in PBS-T and proteins were stained with the following antibodies at 4 °C overnight: CBP […]
BRD4 (Bethyl Laboratories, A301-985A50, diluted 1:2000) and vinculin (Invitrogen, 42H89L44, diluted 1:1000). For detection, membranes were incubated for 1 h at room temperature with HRP-conjugated secondary antibodies (Southern Biotech, anti-rabbit […]
SuperSignal™ West Pico PLUS Chemiluminescent Substrate (Thermo Scientific, 34580) and the Vilber Fusion-FX7 imager. Bands were quantified using ImageJ software and protein levels normalized to protein from DMSO treated cells run on the same membrane. For dose response curves, data was fitted using a four -parameter dose-response curve in GraphPad Prism v. 9.5.1, where the top is fixed at 100 %. The DC50 was defined as the PROTAC concentration resulting in 50 % remaining protein. […]
Background: A western blot detects proteins with antibodies after separation by electrophoresis.

A further assay addresses CRBN and CBP-BRD (Homo sapiens, UniProt Q92793+Q96SW2). The assay is described as follows: FluoPPI cellular ternary complex formation, CBP-BRD. The format is cell-based. The settings on record: U2OS cells, 6 h.

Entries after “also recorded” stand apart in the source; their conditions may differ. Where two headings read alike, the source gives them in different places.

This is an account of results in PMC11423305, “Structure-Based Design of CBP/EP300 Degraders: When Cooperativity Overcomes Affinity” (JACS Au, 2024).

CRBN and CBP-BRD, sequence (Q92793 1081-1211): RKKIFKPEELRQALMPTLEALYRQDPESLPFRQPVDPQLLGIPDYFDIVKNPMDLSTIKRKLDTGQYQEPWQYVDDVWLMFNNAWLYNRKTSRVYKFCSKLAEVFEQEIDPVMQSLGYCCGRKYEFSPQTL
CRBN and CBP-BRD, sequence (Q96SW2 whole entry): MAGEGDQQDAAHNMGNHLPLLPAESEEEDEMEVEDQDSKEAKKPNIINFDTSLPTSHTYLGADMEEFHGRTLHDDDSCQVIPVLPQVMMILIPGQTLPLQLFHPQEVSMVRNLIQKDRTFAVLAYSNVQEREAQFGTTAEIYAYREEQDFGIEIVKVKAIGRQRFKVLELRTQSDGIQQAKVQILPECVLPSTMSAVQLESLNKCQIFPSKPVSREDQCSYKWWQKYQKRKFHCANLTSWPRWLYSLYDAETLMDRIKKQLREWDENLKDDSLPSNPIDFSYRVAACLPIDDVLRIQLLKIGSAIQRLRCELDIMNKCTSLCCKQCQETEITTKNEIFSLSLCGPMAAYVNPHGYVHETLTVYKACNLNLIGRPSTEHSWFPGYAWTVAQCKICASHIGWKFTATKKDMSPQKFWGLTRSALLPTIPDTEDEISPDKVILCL

Regarding `Cc1cc2c(NC(=O)c3cc(NC(=O)CCCCCCCCCCNc4cccc5c4C(=O)N(C4CCC(=O)NC4=O)C5=O)cc(-c4ccn(C)n4)c3)cccc2nn1` (stereo not drawn) [dCE-2], in the assay on SH-SY5Y cells, the “effect on proliferation of SH-SY5Y cells” value is listed as “mild effect; also recorded: limited effect”. Besides, the 50% inhibitory concentration (IC50) (as a rule, the concentration at which inhibition is half-maximal) at CBP-BRD (absence of CRBN, read-out: CBP-BRD IC50 (binary, IC50[control])) was found to be 150 nM; on CBP-BRD (presence of high concentrations of CRBN C-terminal thalidomide binding domain, read-out: ternary IC50 (IC50[CRBN])), 45 nM. Also, on CBP (1 μM, time course), the “time at which CBP/EP300 degradation begins to occur” value was at most 2 h. Besides, at CBP (1 μM, time course), the “time to reach maximal CBP/EP300 degradation (Dmax)” value lay in the range of 16 to 24 h. Besides, the “% remaining CBP” value at CBP (5 μM compound, 16 h, Western blot) amounted to 16%. The half-maximal degradation concentration (DC50) (in general, the midpoint of the concentration-degradation curve) at CBP (16 h) is 40 nM. Moreover, the Dmax (as a rule, the greatest extent of degradation seen) at CBP (LP-1, 16 h) was above 85%. Moreover, the “ternary complex formation in cells with CRBN and CBP-BRD” value on CRBN and CBP-BRD is recorded as “good ternary complex formation”.
